Assay results: paper PMC12051620, “Molecular basis underlying the specificity of an antagonist AA92593 for mammalian melanopsins” (The Journal of Biological Chemistry, 2025)
“Also recorded” adds a separate entry of the source.

Key:
Assay in all cases: NanoBiT Gq dissociation assay using Gqα/R183Q-LgBiT
Type in all cases: cell-based
[1] = target: T1, human melanopsin F94^2.61C/S188^ECL2T/S269^6.52A mutant (Homo sapiens, UniProt Q9UHM6, F127C/S222T/S313A); conditions: 1.67 and 16.7 μM AA92593; COS-1 cells
T1 construct: expressed in transfected cells; host or cells: COS-1
T1 sequence (Q9UHM6 1-384 F127C/S222T/S313A): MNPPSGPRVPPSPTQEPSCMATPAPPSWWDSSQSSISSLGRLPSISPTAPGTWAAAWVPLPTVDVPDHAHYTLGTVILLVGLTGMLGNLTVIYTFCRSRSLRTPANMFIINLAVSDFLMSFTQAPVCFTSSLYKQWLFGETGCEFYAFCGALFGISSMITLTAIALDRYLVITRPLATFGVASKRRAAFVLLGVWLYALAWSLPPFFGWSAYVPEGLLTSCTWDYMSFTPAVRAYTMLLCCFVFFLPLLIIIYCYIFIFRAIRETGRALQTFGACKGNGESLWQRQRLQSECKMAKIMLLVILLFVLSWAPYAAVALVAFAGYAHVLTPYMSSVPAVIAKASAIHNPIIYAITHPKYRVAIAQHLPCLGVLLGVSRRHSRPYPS
Text: (§1) As described above, we have assessed the inhibitory effect of AA92593 using the GsX GloSensor assay. To confirm whether an antagonistic effect could be observed in another experimental system, we used the NanoBiT G protein dissociation assay ([23]). In this assay, Gq activation (dissociation) is detected as a decrease in NanoLuc luminescence from the Lg-BiT fragment inserted with Gqα and the Sm-BiT fragment fused with Gβγ (see “Experimental procedures”) ([23], [24]). If an antagonistic effect is observed in the NanoBiT assay, the light-dependent decrease in luminescence (Gq dissociation) by melanopsin would be reduced in the presence of AA92593. […] A recent study reported that the introduction of a GTPase-deficient substitution, R183Q, on Gqα increased GPCR-induced Gq dissociation signals in a BRET-based biosensor assay, TRUPATH ([25]). […]
(§2) For GloSensor assay, opsins, GloSensor assay sensor (coded by pGlo-22F), and NanoBiT-tagged G proteins were transiently expressed in COS-1 cells (kindly provided from Dr David Farrens, Oregon Health and Science University) using PEI as described previously ([24], [52]). […] For GFP-fluorescence microscopy, a 35-mm cell culture dish (IWAKI) was transfected with 2 μg melanopsin-GFP plasmid and 8 μg PEI in 400 μl Opti-mem and 1.2 ml D-MEM. […]
(§3) The transfected COS-1 cells were incubated at 37 °C, 5% CO2 for 1 day, and the medium was aspirated, followed by the addition of 50 μl of HBSS containing 33.3, 3.33, or 0 μM AA92593, 0.5% DMSO, and 10 μM coelenterazine h (Wako). […] After incubation of the cells, luminescence measurement was interrupted, the plate was ejected, and the cells were added 50 μl of HBSS containing 0.2 μM 9-cis-retinal. […] Luminescence was measured using GM-2000 or GM-3510 microplate reader (Promega). Luminescence level of each well was measured every 18 s with integration time of 0.3 s. To illuminate opsins, luminescence measurement was interrupted, the plate was ejected, and the plate was illuminated by white light with CN-160 LED video light (light intensity, ∼9 mW/cm^2) (NEEWER). After illumination, luminescence measurement was resumed. […]

human melanopsin WT = target: T2, human melanopsin WT (Homo sapiens, UniProt Q9UHM6); conditions: 1.67 and 16.7 μM AA92593; COS-1 cells; concentration-dependent
T2 construct: expressed in transfected cells; host or cells: COS-1
T2 sequence (Q9UHM6 1-384 limits assumed): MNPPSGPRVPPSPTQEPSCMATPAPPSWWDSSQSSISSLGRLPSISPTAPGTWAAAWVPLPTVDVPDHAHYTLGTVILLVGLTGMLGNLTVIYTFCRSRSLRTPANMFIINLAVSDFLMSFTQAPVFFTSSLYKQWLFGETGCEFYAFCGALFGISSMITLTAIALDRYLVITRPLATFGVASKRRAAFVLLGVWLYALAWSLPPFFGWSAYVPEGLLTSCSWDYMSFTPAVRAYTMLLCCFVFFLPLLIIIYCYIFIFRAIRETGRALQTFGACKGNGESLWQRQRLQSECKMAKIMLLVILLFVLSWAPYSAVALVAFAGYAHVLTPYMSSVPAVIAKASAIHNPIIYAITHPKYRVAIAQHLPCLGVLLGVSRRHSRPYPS
Text: as §1, §2, §3

[2] = target: T3, human melanopsin F94^2.61C/S188^ECL2T/W189^ECL2F/S269^6.52A mutant (Homo sapiens, UniProt Q9UHM6, F127C/S222T/S313A/W223F); conditions: 1.67 and 16.7 μM AA92593; COS-1 cells
T3 construct: expressed in transfected cells; host or cells: COS-1
T3 sequence (Q9UHM6 1-384 F127C/S222T/W223F/S313A): as the sequence (Q9UHM6 1-384 F127C/S222T/S313A) above, with W223F counted along it
Text: as §1, §2, §3

COc1ccc(S(=O)(=O)N2CCCCC2)cc1C [AA92593]
AA92593-dependent inhibitory effect on Gq activation compared to WT [1]: much reduced; also recorded: almost insensitive
effect on light-dependent decrease in NanoLuc luminescence (Gq dissociation) (human melanopsin WT): weakened
sensitivity to AA92593 in Gq dissociation [2]: little sensitivity
